According to paper PMC11077815, “Synthesis and antitumor activity of dolutegravir derivatives bearing 1,2,3-triazole moieties” (BMC Chemistry, 2024):

Tests used:
[1] = tested on: A549; test: CCK8 cell viability assay, A549; type: cell-based, Human; conditions: for Cell viability (100%): A549, 20 µM, 48 h, CCK8, control = 100%; for IC50: A549, 48 h, CCK8, mean ± SE
Description: At first, CCK8 assay was carried out to evaluate the anti-proliferative activity of dolutegravir-1,2,3-triazole derivatives against different cancer cell lines. The results of cell viability of three lung cancer cell lines A549, PC-9 and H460 in the presence of compounds 9 and 10 are summarized in Table 2. Cells were treated with different compounds at the concentration of 20 µM for 48 h. […] Human lung cancer cell lines A549, PC-9 and H460 were all obtained from ATCC. Cells were cultured in DMEM or RPMI 1640 medium containing 10% FBS and 1% penicillin/streptomycin at 37 °C with a 5% CO2-humidified atmosphere. CCK8 assay was used to measure cell viability. Cells with a density of 1 × 10^4 cells/well were seeded on the 96-well plates. After adhesion, cells were treated with different diluted compounds or vehicle control DMSO and continue cultured for 48 h. Then, CCK8 reagent was added for one hour incubation at 37 °C with 5% of CO2. Absorbance was measured using a microplate spectrophotometer (Thermo) at 450 nm. The ratio of cell viability of control was taken as 100%. […] Then IC50 of the compounds were investigated using the prism statistical software.

[2] = tested on: HRM (Human Renal Mesangial) cell line; test: CCK8 cell viability assay, HRM normal cells (toxicity control); type: cell-based; conditions: for IC50: HRM normal human cells, 48 h, CCK8, mean ± SE
Description: Based on these preliminary results, compounds 9c, 9e, 9f, 9i, 9k, 9 L, 9p, 9q, 9t, 9u, 9v, 9w, 10c, 10e which were effective to most of the cell lines were chosen for the measurement of the half-maximal inhibitory concentration (IC50). […] HRM (Human Renal Mesangial) cell line was used as a control to study the toxicity of these compounds against normal human cells.
CCK8 assay was used to measure cell viability. Cells with a density of 1 × 10^4 cells/well were seeded on the 96-well plates. After adhesion, cells were treated with different diluted compounds or vehicle control DMSO and continue cultured for 48 h. Then, CCK8 reagent was added for one hour incubation at 37 °C with 5% of CO2. Absorbance was measured using a microplate spectrophotometer (Thermo) at 450 nm. The ratio of cell viability of control was taken as 100%. […] Then IC50 of the compounds were investigated using the prism statistical software.

[3] = tested on: PC-9; test: LIVE/DEAD staining, PC-9; type: cell-based, Human; conditions: PC-9, 5, 10 or 20 µM, 24 h
Description: LIVE/DEAD staining experiments were carried out to evaluate the anti-proliferative activity of dolutegravir derivatives 9e and 9p against PC-9 and H460 cell lines. The tumor cells were treated with 5 µM, 10 µM or 20 µM of 9e and 9p for 24 h. The live and dead cells were photographed and counted.
PC-9 and H460 cells with a density of 5 × 10^3 cells/well were seeded on the 96-well plates. Then different concentrations (0, 5 µM, 10 µM, 20 µM) of 9e or 9p were treated for 24 h. Cells were then stained with the LIVE/DEAD Assay Kit, observed and photographed using the fluorescent microscope.

[4] = tested on: PC-9; test: Plate clone formation assay, PC-9; type: cell-based, Human; conditions: PC9, 0, 2, 4, 8, 16 and 32 µM, 48 h
Description: (§1) The plate clone formation experiments were also carried outto further confirm the effects of dolutegravir derivatives on cell proliferation. Compounds 9e and 9p with different concentrations (0, 2, 4, 8, 16 and 32 µM) were added to the cells.
(§2) PC-9 and H460 cells were seeded into 6-well plates at a density of 100–500 cells/well. After 10 days culture, cells were added with 9e or 9p at different concentrations (0, 2 µM, 4 µM, 8 µM, 16 µM, 32 µM) for 48 h. Then cells were fixed by 4% paraformaldehyde and stained by Giemsa dye. An optical microscope was used to photograph cells and count the clone numbers.

[5] = tested on: H460; test: Plate clone formation assay, H460; type: cell-based, Human; conditions: H460, 0, 2, 4, 8, 16 and 32 µM, 48 h
Description: as §1, §2

[6] = tested on: PC-9; test: Cell cycle assay (PI staining, flow cytometry), PC-9; type: cell-based, Human; conditions: 48 h
Description: (§3) Cancer cell lines PC-9 and H460 were then treated for 48 h with 9e or 9p at different concentrations to investigate the effects of these compounds on regulating the cell cycle. Cell cycle distributions were analyzed using the flow cytometry technique.
(§4) PC-9 and H460 cells were cultured in 6-well plates with a density of 3 × 10^5 cells/well. Cells were treated with different concentrations (0, 4, and 8 µM for PC-9 cells and H460 cells) of 9e or 9p for 48 h respectively. Then the cell cycle was determined by PI staining with the flow cytometer.

[7] = tested on: H460; test: Cell cycle assay (PI staining, flow cytometry), H460; type: cell-based, Human; conditions: H460, 48 h, 4 and 8 µM
Description: as §3, §4

[8] = tested on: PC-9; test: Cellular ROS measurement (DCFH-DA), PC-9; type: cell-based, Human; conditions: PC-9, 5 µM and 10 µM, 24 h, DCFH-DA staining
Description: Reactive oxygen species could induce cell death and suppress cell growth and proliferation. To assess the role of compounds 9e and 9p in ROS generation, different cancer cell lines were treated with 9e or 9p for 24 h. DCFDA was used to stain cells and ROS was detected with fluorescent microscope.
PC-9 and H460 cells were cultured in 96-well plates in a density of 5 × 10^3 cells/well. Different concentrations (0, 5 and 10 µM) of 9e or 9p were added to cells respectively for 24 h. After treatment, cells were stimulated with 10 µM DCFH-DA for 30 min at 37 °C, then observed and photographed using a fluorescent microscope.

[9] = tested on: CyclinD; test: Western blot of CyclinD in PC-9 cells; type: cell-based, Human; conditions: PC-9, 0, 2, 4, 8 µM, 48 h
Description: To determine the role of compounds 9e and 9p on regulating the development of cell proliferation, expressions of key proteins which were involved in cell growth progresses such as autophagy, apoptosis, cell cycle and DNA damage were examined. Ubiquitin like molecule light chain 3 (LC3) is a key marker of autophagy. […] Caspase3, which is one of the key proteins in regulating apoptosis, however, was not changed in tumor cells after treated with 9e or 9p. Cell cycle regulation proteins such as CyclinD, CyclinE or β-catenin were also not affected when PC-9 was treated with 9e or 9p. Further, H2AX variant histone (γ-H2AX), which was responsible for DNA damage, was also not affected when PC-9 were treated with 9e or 9p.
Protein expression levels were measured by western blot. PC-9 cells were cultured in 12-well plates and different concentrations (0, 2, 4, 8µM) of 9e and 9p were added for 48 h. Proteins were extracted from whole cells using radioimmunoprecipitation assay (RIPA). Buffer containing protease/phosphatase inhibitor cocktail (CST). Sodium dodecyl sulfate (10-15%) polyacrylamide gel electrophoresis and nitrocellulose membranes (Millipore) were used to separate and collect proteins. Antibodies used include, LC3 (3868s, CST), Caspase3 (9662, CST), cyclin D (2922s, CST), cyclin E (20808s, CST), γ-H2AX (9718s, CST), and β-actin (4967s, CST).

Compound	Cell viability (100%) [1] [%]	IC50 [1] [µM]	toxicity against normal cells ([2]; HRM cells)	IC50 [2] [µM]	number of live cells [3]	ratio of dead/live cells [3]	plate clone formation (cell proliferation) [4]	plate clone formation (cell proliferation) [5]	effect on cell cycle ([6]; PC-9, 4 µM)	effect on cell cycle ([6]; PC-9, 8 µM)	effect on cell cycle [7]	ROS generation [8]	CyclinD expression [9]	effect on cell cycle ([6]; PC-9, 4 µM and 8 µM)
COc1c2n(cc(C(=O)Nc3cccc(-c4cn(-c5cccc([N+](=O)[O-])c5C)nn4)c3)c1=O)C[C@@H]1OCC[C@@H](C)N1C2=O [Compound 9e]	9.14	8.72 ± 0.11	low toxicity against normal cells	> 50	decreased significantly in a dose dependent manner	increased significantly with the increase of concentration	anti-proliferative activity against cell lines PC9 and H460 in a dose-dependent manner	anti-proliferative activity against cell lines PC9 and H460 in a dose-dependent manner	moderate effects on cell cycle	decreased G0/G1 phase and increased S and G2/M phase	increased G2/M phase and had little influences on G0/G1 or S phase	significantly increased	not affected	–
COc1c2n(cc(C(=O)Nc3cccc(-c4cn(-c5cccc(C(F)(F)F)c5)nn4)c3)c1=O)C[C@@H]1OCC[C@@H](C)N1C2=O [Compound 9p]	10.85	13 ± 0.32	–	35.6 ± 10.8	decreased with the increase of concentration	increased compared with untreated group but not completely in a dose dependent manner	anti-proliferative activity against cell lines PC9 and H460 in a dose-dependent manner	anti-proliferative activity against cell lines PC9 and H460 in a dose-dependent manner	–	–	significantly decrease the S phase	significantly increased	not affected	induced an S and G2/M cell cycle arrest
